Laboratory results from ChEMBL document CHEMBL1144976, “Biological activities of alpha-mangostin derivatives against acidic sphingomyelinase” (Bioorg Med Chem Lett, 2003).

Columns and labels:
[1] = target: T1, Sphingomyelin phosphodiesterase (Homo sapiens, UniProt P17405); test: Inhibitory activity against Acid sphingomyelinase
T1 sequence (P17405 whole entry): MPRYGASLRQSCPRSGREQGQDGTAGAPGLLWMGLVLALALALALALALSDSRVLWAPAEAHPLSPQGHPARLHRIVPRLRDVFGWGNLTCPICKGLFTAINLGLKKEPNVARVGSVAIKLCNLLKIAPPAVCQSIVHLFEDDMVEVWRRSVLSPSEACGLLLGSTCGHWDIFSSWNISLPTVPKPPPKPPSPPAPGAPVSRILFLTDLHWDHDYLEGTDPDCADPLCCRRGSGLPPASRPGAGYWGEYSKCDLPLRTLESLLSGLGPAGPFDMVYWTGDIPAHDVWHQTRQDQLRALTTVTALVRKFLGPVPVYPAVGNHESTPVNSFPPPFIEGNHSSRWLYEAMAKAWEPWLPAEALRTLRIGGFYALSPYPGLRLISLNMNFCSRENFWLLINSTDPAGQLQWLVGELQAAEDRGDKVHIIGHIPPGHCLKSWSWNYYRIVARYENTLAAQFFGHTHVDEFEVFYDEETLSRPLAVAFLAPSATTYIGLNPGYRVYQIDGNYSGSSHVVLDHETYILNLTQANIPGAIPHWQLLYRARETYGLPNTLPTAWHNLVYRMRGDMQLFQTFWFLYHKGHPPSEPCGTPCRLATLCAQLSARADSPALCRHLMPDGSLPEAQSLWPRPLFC

[2] = target: T2, Sphingomyelin phosphodiesterase 2 (Homo sapiens, UniProt O60906); test: Inhibitory activity against NSMase (neutral sphingomyelinase)
T2 sequence (O60906 whole entry): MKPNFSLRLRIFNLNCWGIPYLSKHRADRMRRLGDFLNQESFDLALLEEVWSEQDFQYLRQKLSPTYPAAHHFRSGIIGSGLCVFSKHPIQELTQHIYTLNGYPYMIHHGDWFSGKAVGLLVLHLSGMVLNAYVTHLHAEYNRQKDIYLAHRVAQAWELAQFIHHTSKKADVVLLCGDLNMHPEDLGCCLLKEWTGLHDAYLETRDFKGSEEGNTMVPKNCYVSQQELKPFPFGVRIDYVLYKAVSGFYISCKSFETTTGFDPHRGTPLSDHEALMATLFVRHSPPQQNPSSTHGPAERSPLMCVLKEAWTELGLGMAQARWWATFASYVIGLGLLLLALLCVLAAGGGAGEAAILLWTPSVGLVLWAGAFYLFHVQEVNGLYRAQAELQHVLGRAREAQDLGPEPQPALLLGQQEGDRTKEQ

SMILES	IC50 [1]	IC50 [2]
COc1c(O)cc2oc3cc(O)cc(O)c3c(=O)c2c1CC=C(C)C	15.3 µM	26 µM
COc1c(O)cc(O)c(C(=O)c2c(O)cc(O)cc2O)c1CC=C(C)C	14.7 µM	28.3 µM
COc1c(O)cc(O)c(C(=O)c2c(O)cc(O)c(CC=C(C)C)c2O)c1CC=C(C)C	38.5 µM	113 µM
COc1cc(C(=O)c2c(O)cc(O)c(CC=C(C)C)c2O)c(O)cc1O	66.6 µM	201 µM
COc1c(O)cc2oc3cc(O)c(CC=C(C)C)c(O)c3c(=O)c2c1CC=C(C)C [MANGOSTIN]	12.5 µM	113 µM
COc1cc2c(=O)c3c(O)c(CC=C(C)C)c(O)cc3oc2cc1O	101 µM	> 292 µM
